Reference: publication PMC10218498, “Exploring BenzylethoxyAryl Urea Scaffolds for Multitarget Immunomodulation Therapies” (International Journal of Molecular Sciences, 2023)

Tests used:
[1] = system: HEK-293 (human embryonic kidney cells); test: MTT cell proliferation assay, HEK-293; format: cell-based; conditions: HEK293, 48 h of treatment
Protocol: (§1) This assay allowed us to establish the corresponding IC50 values (expressed as the concentration, in μM, at which 50% of cell viability is achieved), shown in Table 1.
(§2) In 96-well plates, 5 × 10^3 (HT-29, MCF-7, A549, HMEC-1, Jurkat, and HEK-293) cells per well were incubated with serial dilutions of the tested compounds in a total volume of 100 μL of their respective growth media. The 3-(4,5-dimethylthiazol-2-yl)-2,5-diphenyltetrazolium bromide (MTT; Sigma Chemical Co.) dye reduction assay in 96-well microplates was used. After 2 days of incubation (37 °C, 5% CO2 in a humid atmosphere), 10 μL of MTT (5 mg/mL in phosphate-buffered saline, PBS) was added to each well, and the plate was incubated for a further 3 h (37 °C). After that, the supernatant was discarded and replaced by 100 µL of DMSO to dissolve formazan crystals. The absorbance was then read at 550 nm by spectrophotometry. For all concentrations of compound, cell viability was expressed as the percentage of the ratio between the mean absorbance of treated cells and the mean absorbance of untreated cells. Three independent experiments were performed, and the IC50 values (i.e., concentration half inhibiting cell proliferation) were graphically determined using GraphPad Prism 4 software.

[2] = system: human microvessel endothelial cells (HMEC-1); test: MTT cell proliferation assay, HMEC-1; format: cell-based; conditions: 48 h of treatment
Protocol: as §1, §2

Jurkat T cells = test: MTT cell proliferation assay, Jurkat T cells; format: cell-based; conditions: Homo sapiens, 48 h of treatment
Protocol: as §1, §2

[3] = system: HT-29 (colon adenocarcinoma); test: MTT cell proliferation assay, HT-29; format: cell-based, human; conditions: for IC50: Homo sapiens, HT-29, 48 h of treatment, read-out: IC50 HT-29; for IC50 / effect on cancer cell proliferation (HT-29), in words: MTT
Protocol: (§3) The 3-(4,5-dimethylthiazol-2-yl)-2,5-diphenyltetrazolium bromide (MTT; Sigma Chemical Co.) dye reduction assay in 96-well microplates was used. […] After that, the supernatant was discarded and replaced by 100 µL of DMSO to dissolve formazan crystals. The absorbance was then read at 550 nm by spectrophotometry. For all concentrations of compound, cell viability was expressed as the percentage of the ratio between the mean absorbance of treated cells and the mean absorbance of untreated cells. Three independent experiments were performed, and the IC50 values (i.e., concentration half inhibiting cell proliferation) were graphically determined using GraphPad Prism 4 software.

[4] = system: A-549 (pulmonary adenocarcinoma); test: MTT cell proliferation assay, A-549; format: cell-based, human; conditions: for IC50: Homo sapiens, A549, 48 h of treatment, read-out: IC50 A-549; for IC50 / effect on cancer cell proliferation (A-549), in words: MTT
Protocol: as §3

SMILES | IC50 [1] [µM] | IC50 [2] [µM] | IC50 (Jurkat T cells) [µM] | IC50 [3] [µM] | IC50 [4] [µM] | melting point [°C] | effect on cancer cell proliferation (HT-29), in words [3] | effect on cancer cell proliferation (A-549), in words [4] | SI (HT-29) (IC50HEK293/IC50HT-29) ([3]; selectivity index) | SI (A-549) (IC50HEK293/A-549) ([4]; selectivity index)
COc1ccc(COc2cccc(NC(=O)Nc3ccccc3)c2)cc1 [Compound 1] | 1.4 ± 0.2 | > 100 | > 100 | 21 ± 10 | 6 ± 3 | – | – | – | – | –
COc1ccc(COc2cccc(NC(=O)Nc3cccc(F)c3)c2)cc1 [Compound 3] | 3.7 ± 0.8 | > 100 | > 100 | > 100 | > 100 | 202 to 203 | no effect | no effect | – | –
COc1ccc(COc2cccc(NC(=O)Nc3ccccc3F)c2)cc1 [Compound 4] | 16 ± 4 | > 100 | > 100 | > 100 | > 100 | 185 to 186 | no effect | no effect | – | –
COc1ccc(COc2cccc(NC(=O)Nc3ccc(Cl)cc3)c2)cc1 [Compound 5] | > 100 | > 100 | > 100 | 12 ± 4 | 15 ± 2 | – | – | – | >8 | >7
COc1ccc(COc2cccc(NC(=O)Nc3cccc(Cl)c3)c2)cc1 [Compound 6] | 3.3 ± 0.5 | > 100 | > 100 | 38 ± 15 | > 100 | – | only active in HT-29 | – | – | –
COc1ccc(COc2cccc(NC(=O)Nc3ccccc3Cl)c2)cc1 [Compound 7] | 27 ± 9 | > 100 | > 100 | 50 ± 4 | 48 ± 3 | 183.4 | – | – | – | –
